Reference: patent publication US20060167094A1, “Satiety agent” (priority 2005, published 2006)

Experiments:
[1] = test system: pancreatic bicarbonate secretion; settings: luminal fatty acid; cited from earlier work
[2] = cited from earlier work
[3] = at similar concentrations; cited from earlier work
[4] = Appetite perceptions (VAS scores) during and after 90 min intraduodenal infusion; format: in vivo, human
Description: Each subject was studied on three occasions, separated by 3-10 days, to evaluate, in a double-blind, randomized fashion, the effects of intraduodenal infusions of 1) C12, 2) C10, or 3) control solution for 90 min on appetite perceptions, energy intake, APD pressures, and plasma CCK and GLP-1 concentrations.
(§1) Once the catheter was positioned correctly, fasting motility was monitored until the occurrence of phase III of the interdigestive migrating motor complex (MMC). Immediately after the cessation of phase III activity [at time t=−15 min], a baseline venous blood sample was taken, and a visual analog scale questionnaire (VAS) (see Measurements), assessing appetite-related sensations, was administered. At t=0 min (i.e., during phase I of the MMC), the duodenal infusion of 1) C12, 2) C10, or 3) control solution was commenced and continued for 90 min. APD pressures were monitored throughout the infusion period; blood samples were taken, and the VAS administered every 15 min from t=0 min until t=90 min. At t=90 min, the infusion was terminated, and the subject was immediately extubated and offered a cold buffet-style meal, the composition of which is provided in Table 1. The amount of food offered was in excess of what the subject was expected to consume. The subject was given 30 min (i.e., t=90 min to t=120 min) to consume the meal and instructed to eat until comfortably full. After ingestion of the meal, the subject was monitored for a further 30 min, a further VAS was completed, and blood samples were taken at t=120 and 150 min. The intravenous cannula was then removed, and the subject was allowed to leave the laboratory.
Appetite sensations and energy intake. Subjective sensations of appetite, including hunger, fullness, desire to eat, prospective consumption (“how much food do you think you could eat if you were given a meal now?”), were assessed using validated VASs (Sensations of nausea and bloating were also assessed. Each VAS evaluated a sensation on a 100-mm horizontal line, where 0 represented “sensation is not felt at all” and 100 represented “sensation is felt the greatest.” Subjects were asked to place a vertical stroke on the 100-mm line in relation to what they were feeling at that particular point in time.
Baseline (“0”) values were calculated as the mean of values obtained at t=−15 and 0 min for VAS scores and plasma hormone concentrations and between t=−15 to 0 min for basal pyloric pressures, number, and amplitude of IPPWs, antral and duodenal PWs, and total number of duodenal PWSs. Basal pyloric pressures and the number and amplitude of IPPWs were expressed as means over 15-min segments during the 90-min infusion period. Numbers and amplitudes of antral and duodenal PWs were expressed as total number and mean values, respectively, for the 90-min infusion period. Duodenal PWSs were expressed as the total number of waves travelling over two, three, four, five, six, and seven channels during the 90-min infusion period. All data, except for plasma CCK and GLP-1 concentrations, were expressed as changes from baseline.
VAS scores, basal pyloric pressures, number and amplitude of IPPWs, and plasma hormone concentrations were analyzed by repeated-measures mixed model analysis of covariance (ANCOVA), with baseline as the covariate and time (0-90 min, at 15-min intervals) and treatment as within-subject factors. One-way ANOVA was used to assess the effect of treatment on energy intake, time taken to complete eating, total numbers and mean amplitudes of antral and duodenal PWs, and total number of duodenal PWSs. A logarithmic transformation was applied to nausea scores, antral amplitudes, and duodenal PWSs travelling 7.5 and 9 cm to better address the underlying assumptions of the models used (as these variables lacked normal distribution). If significance or near significance ([…]) was found, post hoc comparisons of least-squares means using Student's t-tests were performed. […]

plasma GLP-1 = experiment: Plasma GLP-1 concentrations by radioimmunoassay; format: in vivo, human
Description: as §1
Venous blood samples (10 ml) were collected in ice-chilled EDTA-treated tubes containing 400 kIU aprotinin (Trasylol, Bayer Australia) per millilitre of blood. Plasma was separated by centrifugation (3,200 rpm, 15 min, 4° C.) within 30 min of collection and stored at −70° C. until assayed.
Plasma GLP-1 concentrations (in pmol/l) were measured by radioimmunoassay using an adaptation of a previously published method (4) Antibody, supplied by Prof. […] It is likely that this antibody also reacts with the degraded form of GLP-1(9-36) amide. Intra-assay CV was 17% and interassay CV was 18%, with a sensitivity of 1.5 pmol/l.

CCK secretion = settings: gastric infusion, humans; cited from earlier work
[5] = during 90 min intraduodenal infusion, 0.375 kcal/min, compared with control

Structure (SMILES): CCCCCCCCCCCC(=O)O [C12, lauric acid]
- secretion of pancreatic bicarbonate relative to C10, C16, C18:0, C18:1 and C18:2 [1]: more than twice as much
- adverse effects of perfusion into human duodenum ([2]; 0.36 kcal/min): without adverse effects
- rate of emptying from the human stomach ([2]; in vivo): 0.375 kcal/min
- cytotoxicity relative to C18:1 [3]: half as cytotoxic as C18:1
- fullness (VAS) after meal ingestion ([4]; at 120 and 150 min, after the buffet meal): less after C12 than C10
- mean score for nausea after termination of infusion ([4]; by 120 min (infusion terminated at 90 min)): close to baseline
- scores for bloating (VAS) ([4]; during 90 min intraduodenal infusion, 0.375 kcal/min): increased the scores for bloating
- nausea scores (VAS) [4, 5]: increased nausea scores compared with control
- scores for hunger (VAS) [4, 5]: lower compared with control
- scores for prospective consumption (VAS) [4, 5]: lower compared with control
- scores for desire to eat (VAS) ([4]; during 90 min intraduodenal infusion, 0.375 kcal/min, healthy males, compared with control): lower compared with control
- subjects reporting nausea ([4]; during C12 infusion 0.375 kcal/min, randomized study of 8 subjects): Five of the eight
- delay until plasma GLP-1 concentrations rose (plasma GLP-1; after the start of infusion): 30 min
- plasma GLP-1 concentrations compared with control (plasma GLP-1; during infusion, C12 effect from 30 to 90 min): increased plasma GLP-1
- plasma GLP-1 concentrations compared with C10 (plasma GLP-1; from 45 to 90 min): increased plasma GLP-1
- plasma GLP-1 concentrations after meal ingestion (plasma GLP-1; t=120 and 150 min, compared with control): higher after the C12 infusion compared with both control
- GLP-1 level higher than after ingestion of the buffet meal after the control infusion (plasma GLP-1; versus level after ingestion of ~4,528 kJ): 40%
- stimulation of CCK secretion (CCK secretion): reported to stimulate CCK secretion
